In assay [1] the target is T1, DmNobo (Drosophila melanogaster, UniProt Q7JYX0, D113A).
T1 construct: gene GstE14; full-length CDS, pCold-III, N-terminal translation enhancing element MNHKV kept; E. coli BL21(DE3); homodimer
The assay can be described thus: fluorogenic GSH conjugation assay with […],4-DNADCF. Type of assay: biochemical.

The target of assay [2] is T2, AgNobo (Anopheles gambiae, UniProt Q8WQJ5).
T2 construct: gene GSTe8; full-length CDS, pCold-III, N-terminal MNHKV kept; E. coli BL21(DE3)
T2 sequence (Q8WQJ5 1-217): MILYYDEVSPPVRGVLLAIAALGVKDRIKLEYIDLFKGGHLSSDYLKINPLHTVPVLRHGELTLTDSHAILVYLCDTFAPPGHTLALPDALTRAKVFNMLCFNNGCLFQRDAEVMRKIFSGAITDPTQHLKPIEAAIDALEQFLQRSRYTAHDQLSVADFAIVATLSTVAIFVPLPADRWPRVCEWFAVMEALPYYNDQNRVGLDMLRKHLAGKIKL
The assay can be described thus: fluorogenic GSH conjugation assay with […],4-DNADCF. Type of assay: biochemical.

Assay [3] addresses T3, DmNobo (Drosophila melanogaster, UniProt Q7JYX0).
T3 construct: gene GstE14; full-length CDS, pCold-III, N-terminal translation enhancing element MNHKV kept; E. coli BL21(DE3); homodimer
As to the kind of experiment: SPR, Biacore T200, protein immobilised on CM5 chip by amine coupling. Type of assay: binding. The source says: SPR, Biacore T200, protein immobilised on CM5 chip by amine coupling on DmNobo | Kd values between DmNobo WT and EST in the presence or absence of GSH were […]

The target in assay [4] is T3, DmNobo. As to the kind of experiment: fluorogenic GSH conjugation assay with […],4-DNADCF. Type of assay: biochemical. The settings on record: 1 mM GSH, 1 μM 3,4-DNADCF (final, after equal-volume mixing), 100 mM sodium phosphate pH 6.5, 0.01% Tween 20; H-site.
The target in the next assay is T4, DmGSTE6 (Drosophila melanogaster, UniProt A1ZB71).
T4 construct: gene GstE6; full-length CDS, pCold-III, N-terminal MNHKV kept; E. coli BL21(DE3)
T4 sequence (A1ZB71 1-222): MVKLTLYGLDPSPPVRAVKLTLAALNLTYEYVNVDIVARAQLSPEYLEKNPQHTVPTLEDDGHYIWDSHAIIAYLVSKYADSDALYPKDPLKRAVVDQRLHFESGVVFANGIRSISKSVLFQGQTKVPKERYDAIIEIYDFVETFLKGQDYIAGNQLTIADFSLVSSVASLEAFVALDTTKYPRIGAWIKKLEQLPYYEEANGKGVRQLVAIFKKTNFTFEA
As to the kind of experiment: fluorogenic GSH conjugation assay with […],4-DNADCF. Type of assay: biochemical.

The next assay concerns the target T5, DmGSTE9 (Drosophila melanogaster, UniProt A1ZB74).
T5 construct: gene GstE9; full-length CDS, pCold-III, N-terminal MNHKV kept; E. coli BL21(DE3)
T5 sequence (A1ZB74 1-221): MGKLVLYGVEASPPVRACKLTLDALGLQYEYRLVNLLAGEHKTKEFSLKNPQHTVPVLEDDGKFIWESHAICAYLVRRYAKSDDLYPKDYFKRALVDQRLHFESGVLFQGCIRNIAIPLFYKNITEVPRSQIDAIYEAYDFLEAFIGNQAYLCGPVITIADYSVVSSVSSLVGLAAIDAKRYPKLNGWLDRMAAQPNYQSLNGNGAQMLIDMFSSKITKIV
As to the kind of experiment: fluorogenic GSH conjugation assay with […],4-DNADCF. Type of assay: biochemical.

For assay [5], the target named is T6, AgNobo (Anopheles gambiae, UniProt Q8WQJ5, D111A).
T6 construct: gene GSTe8; full-length CDS, pCold-III, N-terminal MNHKV kept; E. coli BL21(DE3)
T6 sequence (Q8WQJ5 1-217 D111A): T2 sequence (Q8WQJ5 1-217)
As to the kind of experiment: fluorogenic GSH conjugation assay with […],4-DNADCF. Type of assay: biochemical.

Where only a bound is given, the exact number is not on record here.

T3 sequence (Q7JYX0 whole entry): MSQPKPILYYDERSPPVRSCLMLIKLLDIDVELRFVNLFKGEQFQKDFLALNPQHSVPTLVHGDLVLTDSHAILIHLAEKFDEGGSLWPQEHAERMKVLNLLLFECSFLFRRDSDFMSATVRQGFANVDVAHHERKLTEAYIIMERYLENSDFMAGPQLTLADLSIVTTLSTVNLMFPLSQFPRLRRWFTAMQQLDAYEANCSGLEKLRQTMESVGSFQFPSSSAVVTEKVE
T1 sequence (Q7JYX0 whole entry D113A): as the sequence (Q7JYX0 whole entry) above, with D113A counted along it

For `C[C@]12CC[C@@H]3c4ccc(O)cc4CC[C@H]3[C@@H]1CC[C@@H]2O` [17β-estradiol], the IC50 against DmNobo [1] was more than 25000 nM; on AgNobo [2], 2070 nM; against DmNobo [4], 2330 nM; against DmGSTE6, more than 25000 nM; against DmGSTE9, more than 25000 nM; on AgNobo [5] it was more than 25000 nM. The molecule also registered a Kd on DmNobo [3] of 480 ± 100 nM.

Source of the values: paper PMC7242711, “An integrated approach to unravel a crucial structural property required for the function of the insect steroidogenic Halloween protein Noppera-bo” (The Journal of Biological Chemistry, 2020).
